Measured values taken from PubChem BioAssay (NCI).
“And” between values parts separate entries of the source, which are not always exact repeats. Equal entries are not always repeated.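 Compound exposure: 48 hours, 5 concentrations, 96-well plates. Here, GI50 denotes the concentration required for 50% inhibition of growth. Definition used: TGI = concentration required for complete inhibition of growth.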

Legend:
Assay in all cases: NCI tumour cell line growth inhibition, 48 h
OVCAR-5 ovarian = test system: OVCAR-5 ovarian
OVCAR-4 ovarian = test system: OVCAR-4 ovarian
U251 CNS = test system: U251 CNS
NCI/ADR-RES ovarian = test system: NCI/ADR-RES ovarian
SK-MEL-5 melanoma = test system: SK-MEL-5 melanoma
P388/ADR leukemia = test system: P388/ADR leukemia
786-0 renal = test system: 786-0 renal
CAKI-1 renal = test system: CAKI-1 renal
LXFL 529 NSCLC = test system: LXFL 529 NSCLC
SNB-78 CNS = test system: SNB-78 CNS
MCF7 breast = test system: MCF7 breast
RPMI-8226 leukemia = test system: RPMI-8226 leukemia
HCC-2998 colon = test system: HCC-2998 colon
HOP-62 NSCLC = test system: HOP-62 NSCLC
SNB-75 CNS = test system: SNB-75 CNS
A549 NSCLC = test system: A549 NSCLC
SN12K1 renal = test system: SN12K1 renal
SK-MEL-28 melanoma = test system: SK-MEL-28 melanoma
DMS 273 small cell lung = test system: DMS 273 small cell lung
EKVX NSCLC = test system: EKVX NSCLC
HOP-18 NSCLC = test system: HOP-18 NSCLC
HL-60(TB) leukemia = test system: HL-60(TB) leukemia
IGROV1 ovarian = test system: IGROV1 ovarian
A498 renal = test system: A498 renal
ACHN renal = test system: ACHN renal
UO-31 renal = test system: UO-31 renal
SW-620 colon = test system: SW-620 colon
DLD-1 colon = test system: DLD-1 colon
LOX IMVI melanoma = test system: LOX IMVI melanoma
RXF-631 renal = test system: RXF-631 renal
SNB-19 CNS = test system: SNB-19 CNS
SR leukemia = test system: SR leukemia
UACC-257 melanoma = test system: UACC-257 melanoma
P388 leukemia = test system: P388 leukemia
DMS 114 small cell lung = test system: DMS 114 small cell lung
RXF 393 renal = test system: RXF 393 renal
HT29 colon = test system: HT29 colon
NCI-H23 lung = test system: NCI-H23 lung
MOLT-4 leukemia = test system: MOLT-4 leukemia
CCRF-CEM leukemia = test system: CCRF-CEM leukemia
OVCAR-8 ovarian = test system: OVCAR-8 ovarian
SF-295 CNS = test system: SF-295 CNS
M19-MEL melanoma = test system: M19-MEL melanoma
NCI-H226 lung = test system: NCI-H226 lung
MALME-3M melanoma = test system: MALME-3M melanoma
TK-10 renal = test system: TK-10 renal
KM12 colon = test system: KM12 colon
SF-268 CNS = test system: SF-268 CNS
SK-MEL-2 melanoma = test system: SK-MEL-2 melanoma
UACC-62 melanoma = test system: UACC-62 melanoma
HCT-116 colon = test system: HCT-116 colon
NCI-H460 lung = test system: NCI-H460 lung
SN12C renal = test system: SN12C renal
SK-OV-3 ovarian = test system: SK-OV-3 ovarian
COLO 205 colon = test system: COLO 205 colon
SF-539 CNS = test system: SF-539 CNS
NCI-H522 lung = test system: NCI-H522 lung
XF 498 CNS = test system: XF 498 CNS
K-562 leukemia = test system: K-562 leukemia
HCT-15 colon = test system: HCT-15 colon
M14 melanoma = test system: M14 melanoma
KM20L2 colon = test system: KM20L2 colon
OVCAR-3 ovarian = test system: OVCAR-3 ovarian
HOP-92 NSCLC = test system: HOP-92 NSCLC

With `CSCS(=O)C[C@H](CO)NC(=O)/C=C/c1c(C)[nH]c(=O)[nH]c1=O` (stereo partly drawn) the GI50 (OVCAR-5 ovarian) was 2.7 µM, the TGI (OVCAR-5 ovarian) was 9.91 µM and 7.24 µM and the GI50 (OVCAR-4 ovarian) was 0.296 µM. The TGI (OVCAR-4 ovarian) was 1.07 µM and 0.994 µM, the GI50 (U251 CNS) was 0.498 µM and 0.297 µM and the TGI (U251 CNS) was 3.63 µM and 1.91 µM. For the same compound, the TGI (NCI/ADR-RES ovarian) was 6.07 µM, the GI50 (SK-MEL-5 melanoma) was 1.7 µM and the TGI (SK-MEL-5 melanoma) was 5.07 µM and 5.39 µM. The TGI (P388/ADR leukemia) was 7.12 µM, the TGI (786-0 renal) was 5.23 µM and the GI50 (CAKI-1 renal) was 2.74 µM. The TGI (LXFL 529 NSCLC) was 7.65 µM, the GI50 (SNB-78 CNS) was 0.919 µM and the TGI (SNB-78 CNS) was 5.91 µM and 2.74 µM. It also gave a TGI (MCF7 breast) of 6.86 µM, a TGI (RPMI-8226 leukemia) of 6.71 µM and a GI50 (HCC-2998 colon) of 2.5 µM. For the same compound, the TGI (HCC-2998 colon) was 6.27 µM and 4.1 µM, the GI50 (HOP-62 NSCLC) was 1.57 µM and the TGI (HOP-62 NSCLC) was 4.92 µM and 3.67 µM. The GI50 (SNB-75 CNS) was 1.14 µM, the TGI (SNB-75 CNS) was 4.15 µM and 1.03 µM and the GI50 (A549 NSCLC) was 1.99 µM. The TGI (A549 NSCLC) was 8.93 µM and 5.64 µM, the TGI (SN12K1 renal) was 4.42 µM and the GI50 (SK-MEL-28 melanoma) was 1.89 µM. The TGI (SK-MEL-28 melanoma) was 7.94 µM and 3.51 µM, the GI50 (DMS 273 small cell lung) was 3.38 µM and the TGI (DMS 273 small cell lung) was 28.1 µM and 4.54 µM. The GI50 (EKVX NSCLC) was 3.3 µM, the TGI (EKVX NSCLC) was 12.7 µM and 4.98 µM and the GI50 (HOP-18 NSCLC) was 1.22 µM. For the same compound, the TGI (HOP-18 NSCLC) was > 30.8 µM and 5.85 µM, the GI50 (HL-60(TB) leukemia) was 2.23 µM and the TGI (HL-60(TB) leukemia) was 4.96 µM and 3.44 µM. The GI50 (IGROV1 ovarian) was 1.78 µM, the TGI (IGROV1 ovarian) was 9.35 µM and 14.1 µM and the GI50 (A498 renal) was 0.434 µM. For the same compound, the TGI (A498 renal) was 2 µM and 2.06 µM, the TGI (ACHN renal) was 6.86 µM and the GI50 (UO-31 renal) was 2.97 µM. For the same compound, the TGI (UO-31 renal) was 10.2 µM and 4.26 µM, the GI50 (SW-620 colon) was 3.35 µM and the TGI (SW-620 colon) was > 54.6 µM and 25.4 µM. The GI50 (DLD-1 colon) was 2.23 µM, the TGI (DLD-1 colon) was > 23.4 µM and 7.25 µM and the GI50 (LOX IMVI melanoma) was 0.449 µM. For the same compound, the TGI (LOX IMVI melanoma) was 2.07 µM and 3.87 µM, the TGI (RXF-631 renal) was 14.7 µM and the GI50 (SNB-19 CNS) was 0.605 µM. For the same compound, the TGI (SNB-19 CNS) was 8.35 µM and 5.11 µM, the TGI (SR leukemia) was 22.8 µM and the GI50 (UACC-257 melanoma) was 2.22 µM. The TGI (UACC-257 melanoma) was 7.79 µM and 4.86 µM, the TGI (P388 leukemia) was 1.78 µM and the GI50 (DMS 114 small cell lung) was 1.7 µM. For the same compound, the TGI (DMS 114 small cell lung) was 6.61 µM and 3.1 µM, the GI50 (RXF 393 renal) was 1.28 µM and the TGI (RXF 393 renal) was 3.7 µM and 2.97 µM. For the same compound, the GI50 (HT29 colon) was 2.3 µM, the TGI (HT29 colon) was 10 µM and 12.2 µM and the GI50 (NCI-H23 lung) was 1.84 µM. The TGI (NCI-H23 lung) was 4.95 µM and 2.47 µM, the TGI (MOLT-4 leukemia) was 6.73 µM and 5.09 µM and the GI50 (CCRF-CEM leukemia) was 1.46 µM. For the same compound, the TGI (CCRF-CEM leukemia) was 8.69 µM and 4.02 µM, the GI50 (OVCAR-8 ovarian) was 1.02 µM and the TGI (OVCAR-8 ovarian) was 3.96 µM and 4.35 µM. The GI50 (SF-295 CNS) was 0.406 µM, the TGI (SF-295 CNS) was 2.64 µM and 2.37 µM and the GI50 (M19-MEL melanoma) was 2.38 µM. The TGI (M19-MEL melanoma) was 15.2 µM and 3.32 µM, the TGI (NCI-H226 lung) was 3.42 µM and the GI50 (MALME-3M melanoma) was 1.08 µM. For the same compound, the TGI (MALME-3M melanoma) was 3.08 µM and 2.05 µM, the TGI (TK-10 renal) was greater than 29.5 µM and the GI50 (KM12 colon) was 1.95 µM. For the same compound, the TGI (KM12 colon) was 7.6 µM and 3.98 µM, the GI50 (SF-268 CNS) was 0.571 µM and the TGI (SF-268 CNS) was 3.86 µM and 1.37 µM. For the same compound, the GI50 (SK-MEL-2 melanoma) was 1.65 µM, the TGI (SK-MEL-2 melanoma) was 4.59 µM and 2.75 µM and the GI50 (UACC-62 melanoma) was 1.39 µM. For the same compound, the TGI (UACC-62 melanoma) was 4.56 µM and 3.44 µM, the GI50 (HCT-116 colon) was 3.16 µM and the GI50 (NCI-H460 lung) was 1.19 µM. The TGI (NCI-H460 lung) was > 27.6 µM and 7.55 µM, the GI50 (SN12C renal) was 1.46 µM and the TGI (SN12C renal) was 7.79 µM and 5.49 µM. For the same compound, the TGI (SK-OV-3 ovarian) was 6.11 µM and 6.96 µM, the GI50 (COLO 205 colon) was 3.16 µM and the GI50 (SF-539 CNS) was 1.2 µM. For the same compound, the TGI (SF-539 CNS) was 4.1 µM and 2.66 µM, the GI50 (NCI-H522 lung) was 1.35 µM and the TGI (NCI-H522 lung) was 3.3 µM and 2.36 µM. For the same compound, the TGI (XF 498 CNS) was 0.548 µM, the GI50 (K-562 leukemia) was 1.72 µM and the TGI (K-562 leukemia) was 8.83 µM and 5.01 µM. For the same compound, the GI50 (HCT-15 colon) was 2.93 µM, the TGI (HCT-15 colon) was 13.6 µM and 6.92 µM and the TGI (M14 melanoma) was 2.79 µM. For the same compound, the GI50 (KM20L2 colon) was 2.07 µM, the TGI (KM20L2 colon) was 12 µM and 4.35 µM and the GI50 (OVCAR-3 ovarian) was 1.89 µM. The TGI (OVCAR-3 ovarian) was 4.63 µM and 3.98 µM, the GI50 (HOP-92 NSCLC) was 0.815 µM and the TGI (HOP-92 NSCLC) was 4.05 µM and 0.778 µM.
